Source: patent publication US20210386367A1, “DEVICES AND SYSTEMS FOR GASTROINTESTINAL MICROBIOME DETECTION AND MANIPULATION” (Progenity, Inc., priority 2018, published 2021)
Converted amounts (≈) assume the structure as drawn. Where two headings read alike, the source gives them in different places.

Assays:
[1] = test system: Prevotella spp.; test: Agar dilution MIC, 30 clinical isolates; type: cell-based; conditions: for Mode: modal MIC
[2] = test system: Klebsiella spp.; test: Broth microdilution MIC, 50 clinical isolates (20 K. oxytoca, 30 K. pneumoniae); type: cell-based; conditions: for MIC50: read-out: MIC50
Procedure: Minimal inhibitory concentration (MIC) values were determined by broth microdilution or agar dilution in accordance with guidelines from the Clinical and Laboratory Standards Institute (CLSI; (1) “Methods for Dilution Antimicrobial Susceptibility Tests for Bacteria That Grow Aerobically; Approved Standard; 11th ed.” CLSI standard M07-A11, 2018; (2) “Performance Standards for Antimicrobial Susceptibility Testing; Twenty-Eighth Informational Supplement,” CLSI document M100-S28, 2018; and (3) “Methods for Antimicrobial Susceptibility Testing of Anaerobic Bacteria; Approved Standard—Eighth Edition,” CLSI document M11-A8, 2012).
Tested aerobically by broth microdilution: • Escherichia coli, n=50 • Klebsiella spp., n=50 • Pseudomonas aeruginosa, n=50 • Streptococcus spp., n=50 • Staphylococcus aureus, n=50 • Enterococcus faecalis, n=50 • Enterobacter aerogenes, n=50 • Proteus mirabilis, n=50
Broth microdilution testing of aerobic bacteria was conducted in cation-adjusted Mueller Hinton broth (MHBII). For testing streptococci, lysed horse blood (LHB) was added to MHBII broth at a final concentration of 3%. Where LHB was used, it was added after filtering.
Broth microdilution susceptibility testing in 96-well microplates was conducted in accordance with CLSI methods (1) and (2). Automated liquid handlers were used to conduct serial dilutions and liquid transfers, including the Multidrop 384 (Labsystems, Helsinki, Finland), Biomek 2000, and the Biomek FX (Beckman Coulter, Fullerton, Calif.). All wells in columns 2 through 12 of a standard 96-well microdilution plate (Costar 3795) were filled with 150 μL of the appropriate diluent. Then, 300 μL of the test agents were added to the wells of column 1 of the plates at 100× the highest final concentration to be tested. Serial two-fold dilutions were made across the rows through column 11 using the Biomek 2000. The wells of column 12 contained no drug and served as the growth control wells. This plate served as the “mother plate” from which MIC assay plates or “daughter plates” were made.
The daughter plates were loaded with 190 μL per well of the appropriate medium using the Multidrop 384. The daughter plates were created using the Biomek FX which transferred 2 μL of drug solution from each well of a mother plate to each corresponding well of the daughter plate in a single step. A standardized inoculum of each test organism was prepared per CLSI methods (1) to equal a 0.5 McFarland standard, followed by a dilution of 1:20 for aerobes and 1:10 for anaerobes. The plates were then inoculated with 10 μL of the diluted inoculum using the Biomek 2000 from low to high drug concentration, resulting in a final concentration of approximately 5×10^5 CFU/mL per well. An un-inoculated plate was incubated in parallel for each medium for the purpose of assessing solubility of the drug in the test media.
Inoculated plates were stacked 3 or 4 high, covered with a sterile lid on the top plate, placed into boxes with CO2 planchets (streptococci) or plastic bags (all other isolates). Plates were incubated at 35° C. for 16-24 hr in ambient air for aerobes or for 42-48 hr in the anaerobic environment of the Bactron II anaerobe chamber (Sheldon Manufacturing Co.; Cornelius, Oreg.). Following incubation, the microplates were removed from the incubator and viewed from the bottom using a plate viewer. The MIC values were read and recorded as the lowest concentration of drug that inhibited visible growth of the organism as per CLSI methods (1) and (2).

[3] = test system: E. coli ATCC 25922; test: Broth microdilution MIC (time-kill study); type: cell-based, Escherichia coli
[4] = test system: Streptococcus spp. spontaneous mutants; test: organism not typed; type: cell-based
How it was run: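 Spontaneous mutants from drug selection plates were tested by CLSI broth microdilution in MHB II with two-fold serial drug dilutions. Inoculum was about 5×10^5 CFU/mL, incubated aerobically at 35° C. for 18-20 hr. MIC was the lowest concentration inhibiting visible growth.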

[5] = 30 Prevotella spp. clinical isolates

With Cc1ncc([N+](=O)[O-])n1CCO [MTZ] the “% R” value [1, 5] was 3%, the “% S” value [1, 5] was 97% and the MIC50 [1, 5] was 1 µg/mL (≈ 5.84 µM). It also gave an MIC90 [1, 5] of 8 µg/mL (≈ 46.7 µM), an MIC range [1, 5] of 0.12 to 32 µg/mL and a Mode [1, 5] of 1 µg/mL.

CO/N=C(\C(=O)N[C@@H]1C(=O)N2C(C(=O)O)=C(CSc3nc(=O)c(=O)[nH]n3C)CS[C@H]12)c1csc(N)n1 [ceftriaxone] was tested, and the “% I” value [2] was 6%, the “% R” value [2] was 28% and the “% S” value [2] was 66%. For the same compound, the Mode [2] was 0.06 µg/mL, the “Cumulative percentage of isolates at MIC” value ([2]; 0.015 μg/mL) was 2.0% and the “Number of test isolates at MIC” value ([2]; 0.015 μg/mL) was 1. For the same compound, the “Cumulative percentage of isolates at MIC” value ([2]; 0.03 μg/mL) was 12.0%, the “Number of test isolates at MIC” value ([2]; 0.03 μg/mL) was 5 and the “Cumulative percentage of isolates at MIC” value ([2]; 0.06 μg/mL) was 14.0%. For the same compound, the “Number of test isolates at MIC” value ([2]; 0.06 μg/mL) was 16, the “Cumulative percentage of isolates at MIC” value ([2]; 0.5 μg/mL) was 64.0% and the “Number of test isolates at MIC” value ([2]; 0.5 μg/mL) was 1. For the same compound, the “Cumulative percentage of isolates at MIC” value ([2]; 1 μg/mL) was 66.0%, the “Number of test isolates at MIC” value ([2]; 1 μg/mL) was 1 and the “Cumulative percentage of isolates at MIC” value ([2]; 2 μg/mL) was 72.0%. For the same compound, the “Number of test isolates at MIC” value ([2]; 2 μg/mL) was 3, the “Cumulative percentage of isolates at MIC” value ([2]; 8 μg/mL) was 76.0% and the “Number of test isolates at MIC” value ([2]; 8 μg/mL) was 2. For the same compound, the “Cumulative percentage of isolates at MIC” value ([2]; 32 μg/mL) was 80.0%, the “Number of test isolates at MIC” value ([2]; 32 μg/mL) was 2 and the “Cumulative percentage of isolates at MIC” value ([2]; >128 μg/mL) was 100.0%. For the same compound, the “Number of test isolates at MIC” value ([2]; >128 μg/mL) was 10, the MIC90 ([2]; Klebsiella) was over 128 µg/mL and the MIC50 ([2]; Klebsiella) was 0.12 µg/mL (≈ 0.216 µM). For the same compound, the “% I” value ([2]; listed as CTR) was 6%, the “% R” value ([2]; listed as CTR) was 28% and the MIC90 ([2]; listed as CTR) was over 128 µg/mL. The MIC range [1] was 0.12 to 128 µg/mL, the isolates resistant [1] was 33% and the “isolates with intermediate resistance” value [1] was 20%. The “% I” value [1, 5] was 20%, the “% R” value [1, 5] was 33% and the “% S” value [1, 5] was 47%. For the same compound, the MIC50 [1, 5] was 32 µg/mL (≈ 57.7 µM), the MIC90 [1, 5] was 64 µg/mL (≈ 115 µM) and the MIC range [1, 5] was 0.12 to 128 µg/mL. It also gave an MIC50 ([1]; Prevotella, read-out: MIC50) of 32 µg/mL (≈ 57.7 µM), an MIC90 ([1]; Prevotella, read-out: MIC90) of 64 µg/mL (≈ 115 µM) and a Mode [1, 5] of 64 µg/mL. It also gave an MIC ([3]; E. coli ATCC 25922) of 0.06 µg/mL (≈ 0.108 µM), an MIC ([3]; Escherichia coli, ATCC25922, broth microdilution, read-out: MIC) of 0.06 µg/mL (≈ 0.108 µM) and an MIC ([4]; S. pneumoniae ATCC 49619, selected on rifaximin 4X MIC, Colony A) of 0.03 µg/mL (≈ 0.0541 µM). The MIC ([4]; S. pneumoniae ATCC 49619, selected on rifaximin 4X MIC, Colony B) was 0.06 µg/mL (≈ 0.108 µM), the MIC ([4]; S. pneumoniae ATCC 49619, selected on rifaximin 8X MIC, Colony A) was 0.03 µg/mL (≈ 0.0541 µM) and the MIC ([4]; S. pneumoniae ATCC 49619, selected on rifaximin 8X MIC, Colony B) was 0.03 µg/mL (≈ 0.0541 µM). It also gave an MIC ([4]; S. pneumoniae ATCC 49619 Parent) of 0.06 µg/mL (≈ 0.108 µM), an MIC ([4]; S. pyogenes ATCC 49399, selected on rifaximin 4X MIC, Colony A) of 0.008 µg/mL (≈ 0.0144 µM) and an MIC ([4]; S. pyogenes ATCC 49399, selected on rifaximin 4X MIC, Colony B) of 0.015 µg/mL (≈ 0.027 µM). It also gave an MIC ([4]; S. pyogenes ATCC 49399, selected on rifaximin 8X MIC, Colony A) of 0.015 µg/mL (≈ 0.027 µM), an MIC ([4]; S. pyogenes ATCC 49399, selected on rifaximin 8X MIC, Colony B) of 0.008 µg/mL (≈ 0.0144 µM) and an MIC ([4]; S. pyogenes ATCC 49399 Parent) of 0.015 µg/mL (≈ 0.027 µM). It also gave an MIC ([4]; Streptococcus, ATCC13813, S. agaloctiae ATCC 13813, selected on rifaximin 4X MIC, Colony A) of 0.015 µg/mL (≈ 0.027 µM), an MIC ([4]; Streptococcus, ATCC13813, S. agaloctiae ATCC 13813, selected on rifaximin 4X MIC, Colony B) of 0.015 µg/mL (≈ 0.027 µM) and an MIC ([4]; Streptococcus, ATCC13813, S. agaloctiae ATCC 13813, selected on rifaximin 8X MIC, Colony A) of 0.015 µg/mL (≈ 0.027 µM). It also gave an MIC ([4]; Streptococcus, ATCC13813, S. agaloctiae ATCC 13813, selected on rifaximin 8X MIC, Colony B) of 0.06 µg/mL (≈ 0.108 µM) and an MIC ([4]; Streptococcus, ATCC13813, S. agaloctiae ATCC 13813 Parent) of 0.015 µg/mL (≈ 0.027 µM).

In the case of COc1c(N2C[C@@H]3CCCN[C@@H]3C2)c(F)cc2c(=O)c(C(=O)O)cn(C3CC3)c12 [moxifloxacin], the MIC range [2] is reported as 0.015 to 128 µg/mL, the Mode [2] is reported as 0.06 µg/mL and the “Cumulative percentage of isolates at MIC” value ([2]; 0.015 μg/mL) is reported as 2.0%. The “Number of test isolates at MIC” value ([2]; 0.015 μg/mL) was 1, the “Cumulative percentage of isolates at MIC” value ([2]; 0.03 μg/mL) was 8.0% and the “Number of test isolates at MIC” value ([2]; 0.03 μg/mL) was 3. The “Cumulative percentage of isolates at MIC” value ([2]; 0.06 μg/mL) was 56.0%, the “Number of test isolates at MIC” value ([2]; 0.06 μg/mL) was 24 and the “Cumulative percentage of isolates at MIC” value ([2]; 0.5 μg/mL) was 77.0%. For the same compound, the “Number of test isolates at MIC” value ([2]; 0.5 μg/mL) was 2, the “Cumulative percentage of isolates at MIC” value ([2]; 1 μg/mL) was 74.0% and the “Number of test isolates at MIC” value ([2]; 1 μg/mL) was 1. The “Cumulative percentage of isolates at MIC” value ([2]; 2 μg/mL) was 80.0%, the “Number of test isolates at MIC” value ([2]; 2 μg/mL) was 3 and the “Cumulative percentage of isolates at MIC” value ([2]; 4 μg/mL) was 84.0%. For the same compound, the “Number of test isolates at MIC” value ([2]; 4 μg/mL) was 2, the “Cumulative percentage of isolates at MIC” value ([2]; 16 μg/mL) was 88.0% and the “Number of test isolates at MIC” value ([2]; 16 μg/mL) was 2. The “Cumulative percentage of isolates at MIC” value ([2]; 32 μg/mL) was 94.0%, the “Number of test isolates at MIC” value ([2]; 32 μg/mL) was 3 and the “Cumulative percentage of isolates at MIC” value ([2]; 64 μg/mL) was 96.0%. For the same compound, the “Number of test isolates at MIC” value ([2]; 64 μg/mL) was 1, the “Cumulative percentage of isolates at MIC” value ([2]; 128 μg/mL) was 100.0% and the “Number of test isolates at MIC” value ([2]; 128 μg/mL) was 2. For the same compound, the MIC50 ([2]; Klebsiella) was 0.06 µg/mL (≈ 0.149 µM) and the MIC90 ([2]; Klebsiella, read-out: MIC90) was 32 µg/mL (≈ 79.7 µM).
